# Measurements taken from paper PMC4468608, “A distinct p53 target gene set predicts for response to the selective p53–HDM2 inhibitor NVP-CGM097” (eLife, 2015).
# Tested on: cell lines from the Cancer Cell Line Encyclopedia (CCLE)
# Test: High-throughput cell viability assay, CCLE cell line panel (n = 356)
# Assay type: cell-based, human
# Procedure: Cell lines were partitioned into sensitive and insensitive groups based on compound potency (IC50). […] All other cell lines were obtained from ATCC (American Type Culture Collection), DSMZ (Deutsche Sammlung von Mikroorganismen und Zellkulturen), and HSRRB (Health Science Research Resources Bank) and cultured in RPMI or Dulbecco's modified Eagle's medium plus 10% FBS (Invitrogen, Carlsbad, CA) at 37°C, 5% CO2.
# [1] = cell line KMRC-1, kidney, TP53 WT
# [2] = cell line KMS-27, haem._and_lymphoid_tissue, TP53 WT
# [3] = cell line KMS-28BM, haem._and_lymphoid_tissue, TP53 WT
# [4] = cell line KNS-42, central_nervous_system, TP53 MUT
# [5] = cell line KYSE-410, oesophagus, TP53 MUT
# [6] = cell line KYSE-450, oesophagus, TP53 MUT
# [7] = cell line KYSE-510, oesophagus, TP53 MUT
# [8] = cell line KYSE-520, oesophagus, TP53 MUT
# [9] = cell line L-428, haem._and_lymphoid_tissue, TP53 MUT
# [10] = cell line LN-229, central_nervous_system, TP53 WT
# [11] = cell line MEL-HO, skin, TP53 WT
# [12] = cell line MHH-ES-1, bone, TP53 MUT
# [13] = cell line Malme-3M, skin, TP53 WT
# [14] = cell line NCI-H460, lung, TP53 WT
# [15] = cell line NCI-H647, lung, TP53 MUT
# [16] = cell line NCI-H1299, lung, TP53 WT
# [17] = cell line NCI-H1341, lung, TP53 WT
# [18] = cell line NCI-H1650, lung, TP53 MUT
# [19] = cell line NCI-H1693, lung, TP53 MUT
# [20] = cell line NCI-H1703, lung, TP53 MUT
# [21] = cell line OAW42, ovary, TP53 WT
# [22] = cell line OE19, oesophagus, TP53 MUT
# [23] = cell line OVCAR-8, ovary, TP53 MUT
# [24] = cell line PE/CA-PJ41 (clone D2), upper_aerodigestive_tract, TP53 MUT
# [25] = cell line PEER, haem._and_lymphoid_tissue, TP53 MUT
# [26] = cell line SCaBER, urinary_tract, TP53 MUT
# [27] = cell line SK-HEP-1, liver, TP53 WT
# [28] = cell line SK-MEL-5, skin, TP53 WT
# [29] = cell line SK-MEL-24, skin, TP53 WT
# [30] = cell line SNG-M, endometrium, TP53 WT
# [31] = cell line SNU-423, liver, TP53 MUT
# [32] = cell line SW403, large_intestine, TP53 MUT
# [33] = cell line SW 780, urinary_tract, TP53 WT
# [34] = cell line SW 1573, lung, TP53 WT
# [35] = cell line TE-9, oesophagus, TP53 MUT
# [36] = cell line TE-11, oesophagus, TP53 MUT
# [37] = cell line UM-UC-3, urinary_tract, TP53 MUT
# [38] = cut-off IC50 4 µM, 356 cell lines
smiles,measurement,setting,value
COc1cc2c(cc1OC(C)C)[C@H](c1ccc(Cl)cc1)N(c1ccc(N(C)C[C@H]3CC[C@H](N4CCNC(=O)C4)CC3)cc1)C(=O)C2 [NVP-CFC218],NVP- CFC218 sensitivity call,"cell line JHOS-2, ovary, TP53 MUT",insensitive (Sensitivity call for each compound was applied according to a cut-off of 4 µM for IC50 and -50% for Amax)
same,NVP- CFC218 Amax (%),[1],-42.40%
same,NVP- CFC218 sensitivity call,[1],insensitive (Sensitivity call for each compound was applied according to a cut-off of 4 µM for IC50 and -50% for Amax)
same,NVP- CFC218 Amax (%),[2],-1.14%
same,NVP- CFC218 sensitivity call,[2],insensitive (Sensitivity call for each compound was applied according to a cut-off of 4 µM for IC50 and -50% for Amax)
same,NVP- CFC218 Amax (%),[3],3.74%
same,NVP- CFC218 sensitivity call,[3],insensitive (Sensitivity call for each compound was applied according to a cut-off of 4 µM for IC50 and -50% for Amax)
same,NVP- CFC218 Amax (%),[4],-8.48%
same,NVP- CFC218 sensitivity call,[4],insensitive (Sensitivity call for each compound was applied according to a cut-off of 4 µM for IC50 and -50% for Amax)
same,NVP- CFC218 Amax (%),[5],-24.33%
same,NVP- CFC218 sensitivity call,[5],insensitive (Sensitivity call for each compound was applied according to a cut-off of 4 µM for IC50 and -50% for Amax)
same,NVP- CFC218 Amax (%),[6],-1.37%
same,NVP- CFC218 sensitivity call,[6],insensitive (Sensitivity call for each compound was applied according to a cut-off of 4 µM for IC50 and -50% for Amax)
same,NVP- CFC218 Amax (%),[7],3.18%
same,NVP- CFC218 sensitivity call,[7],insensitive (Sensitivity call for each compound was applied according to a cut-off of 4 µM for IC50 and -50% for Amax)
same,NVP- CFC218 Amax (%),[8],-5.52%
same,NVP- CFC218 sensitivity call,[8],insensitive (Sensitivity call for each compound was applied according to a cut-off of 4 µM for IC50 and -50% for Amax)
same,NVP- CFC218 Amax (%),[9],-26.31%
same,NVP- CFC218 sensitivity call,[9],insensitive (Sensitivity call for each compound was applied according to a cut-off of 4 µM for IC50 and -50% for Amax)
same,NVP- CFC218 Amax (%),[10],-42.01%
same,NVP- CFC218 sensitivity call,[10],insensitive (Sensitivity call for each compound was applied according to a cut-off of 4 µM for IC50 and -50% for Amax)
same,NVP- CFC218 Amax (%),[11],-40.38%
same,NVP- CFC218 sensitivity call,[11],insensitive (Sensitivity call for each compound was applied according to a cut-off of 4 µM for IC50 and -50% for Amax)
same,NVP- CFC218 Amax (%),[12],1.25%
same,NVP- CFC218 sensitivity call,[12],insensitive (Sensitivity call for each compound was applied according to a cut-off of 4 µM for IC50 and -50% for Amax)
same,NVP- CFC218 Amax (%),[13],-39.40%
same,NVP- CFC218 sensitivity call,[13],insensitive (Sensitivity call for each compound was applied according to a cut-off of 4 µM for IC50 and -50% for Amax)
same,NVP- CFC218 Amax (%),[14],0.31%
same,NVP- CFC218 sensitivity call,[14],insensitive (Sensitivity call for each compound was applied according to a cut-off of 4 µM for IC50 and -50% for Amax)
same,NVP- CFC218 Amax (%),[15],-29.54%
same,NVP- CFC218 sensitivity call,[15],insensitive (Sensitivity call for each compound was applied according to a cut-off of 4 µM for IC50 and -50% for Amax)
same,NVP- CFC218 Amax (%),[16],0.83%
same,NVP- CFC218 sensitivity call,[16],insensitive (Sensitivity call for each compound was applied according to a cut-off of 4 µM for IC50 and -50% for Amax)
same,NVP- CFC218 Amax (%),[17],-36.36%
same,NVP- CFC218 sensitivity call,[17],insensitive (Sensitivity call for each compound was applied according to a cut-off of 4 µM for IC50 and -50% for Amax)
same,NVP- CFC218 Amax (%),[18],2.72%
same,NVP- CFC218 sensitivity call,[18],insensitive (Sensitivity call for each compound was applied according to a cut-off of 4 µM for IC50 and -50% for Amax)
same,NVP- CFC218 Amax (%),[19],-4.47%
same,NVP- CFC218 sensitivity call,[19],insensitive (Sensitivity call for each compound was applied according to a cut-off of 4 µM for IC50 and -50% for Amax)
same,NVP- CFC218 Amax (%),[20],-40.27%
same,NVP- CFC218 sensitivity call,[20],insensitive (Sensitivity call for each compound was applied according to a cut-off of 4 µM for IC50 and -50% for Amax)
same,NVP- CFC218 Amax (%),[21],-7.13%
same,NVP- CFC218 sensitivity call,[21],insensitive (Sensitivity call for each compound was applied according to a cut-off of 4 µM for IC50 and -50% for Amax)
same,NVP- CFC218 Amax (%),[22],14.48%
same,NVP- CFC218 sensitivity call,[22],insensitive (Sensitivity call for each compound was applied according to a cut-off of 4 µM for IC50 and -50% for Amax)
same,NVP- CFC218 Amax (%),[23],-30.79%
same,NVP- CFC218 sensitivity call,[23],insensitive (Sensitivity call for each compound was applied according to a cut-off of 4 µM for IC50 and -50% for Amax)
same,NVP- CFC218 Amax (%),[24],-0.29%
same,NVP- CFC218 sensitivity call,[24],insensitive (Sensitivity call for each compound was applied according to a cut-off of 4 µM for IC50 and -50% for Amax)
same,NVP- CFC218 Amax (%),[25],-46.94%
same,NVP- CFC218 sensitivity call,[25],insensitive (Sensitivity call for each compound was applied according to a cut-off of 4 µM for IC50 and -50% for Amax)
same,NVP- CFC218 Amax (%),[26],0.88%
same,NVP- CFC218 sensitivity call,[26],insensitive (Sensitivity call for each compound was applied according to a cut-off of 4 µM for IC50 and -50% for Amax)
same,NVP- CFC218 Amax (%),[27],-41.72%
same,NVP- CFC218 sensitivity call,[27],insensitive (Sensitivity call for each compound was applied according to a cut-off of 4 µM for IC50 and -50% for Amax)
same,NVP- CFC218 Amax (%),[28],-47.83%
same,NVP- CFC218 sensitivity call,[28],insensitive (Sensitivity call for each compound was applied according to a cut-off of 4 µM for IC50 and -50% for Amax)
same,NVP- CFC218 Amax (%),[29],-47.55%
same,NVP- CFC218 sensitivity call,[29],insensitive (Sensitivity call for each compound was applied according to a cut-off of 4 µM for IC50 and -50% for Amax)
same,NVP- CFC218 Amax (%),[30],-25.75%
same,NVP- CFC218 sensitivity call,[30],insensitive (Sensitivity call for each compound was applied according to a cut-off of 4 µM for IC50 and -50% for Amax)
same,NVP- CFC218 Amax (%),[31],-5.91%
same,NVP- CFC218 sensitivity call,[31],insensitive (Sensitivity call for each compound was applied according to a cut-off of 4 µM for IC50 and -50% for Amax)
same,NVP- CFC218 Amax (%),[32],51.39%
same,NVP- CFC218 sensitivity call,[32],insensitive (Sensitivity call for each compound was applied according to a cut-off of 4 µM for IC50 and -50% for Amax)
same,NVP- CFC218 Amax (%),[33],-38.52%
same,NVP- CFC218 sensitivity call,[33],insensitive (Sensitivity call for each compound was applied according to a cut-off of 4 µM for IC50 and -50% for Amax)
same,NVP- CFC218 Amax (%),[34],-48.52%
same,NVP- CFC218 sensitivity call,[34],insensitive (Sensitivity call for each compound was applied according to a cut-off of 4 µM for IC50 and -50% for Amax)
same,NVP- CFC218 Amax (%),"cell line Sq-1, lung, TP53 WT",4.40%
same,NVP- CFC218 sensitivity call,"cell line Sq-1, lung, TP53 WT",insensitive (Sensitivity call for each compound was applied according to a cut-off of 4 µM for IC50 and -50% for Amax)
same,NVP- CFC218 Amax (%),[35],-6.46%
same,NVP- CFC218 sensitivity call,[35],insensitive (Sensitivity call for each compound was applied according to a cut-off of 4 µM for IC50 and -50% for Amax)
same,NVP- CFC218 Amax (%),[36],-3.43%
same,NVP- CFC218 sensitivity call,[36],insensitive (Sensitivity call for each compound was applied according to a cut-off of 4 µM for IC50 and -50% for Amax)
same,NVP- CFC218 Amax (%),[37],-27.23%
same,NVP- CFC218 sensitivity call,[37],insensitive (Sensitivity call for each compound was applied according to a cut-off of 4 µM for IC50 and -50% for Amax)
same,NVP- CFC218 Amax (%),"cell line WM-88, skin, TP53 WT",-37.15%
same,NVP- CFC218 sensitivity call,"cell line WM-88, skin, TP53 WT",insensitive (Sensitivity call for each compound was applied according to a cut-off of 4 µM for IC50 and -50% for Amax)
same,"Number of insensitive cell lines, p53MUT",[38],252
same,"Number of insensitive cell lines, p53WT",[38],57
same,"Number of insensitive cell lines, total",[38],309
same,"Number of sensitive cell lines, p53MUT",[38],4
same,"Number of sensitive cell lines, p53WT",[38],43
same,baseline response rate without prior stratification,estimated from the NVP-CFC218 sensitivity data,19%
same,maximal compound effect level (Amax),for the sensitive cell lines,≤ −50%
